According to patent US20220380430A1, “Non-Transgenic Functional Rescue of Neuropeptides” (Worcester Polytechnic Institute, priority 2021, published 2022):
“Also recorded” adds a separate entry of the source. No end group written: not given here.

Assays:
NPR-10B = target: T1, NPR-10B (Caenorhabditis elegans, UniProt Q6EUU1); experiment: In vitro GPCR activation assay (CHO-K1 cells, aequorin, human Gα16), NPR-10B; type: cell-based, C. elegans; settings: for activation of NPR-10 (NPR-10B): in words; for EC50: title: NPR-10B, calcium/aequorin luminescence in transfected CHO-K1 cells
T1 sequence (Q6EUU1 1-362): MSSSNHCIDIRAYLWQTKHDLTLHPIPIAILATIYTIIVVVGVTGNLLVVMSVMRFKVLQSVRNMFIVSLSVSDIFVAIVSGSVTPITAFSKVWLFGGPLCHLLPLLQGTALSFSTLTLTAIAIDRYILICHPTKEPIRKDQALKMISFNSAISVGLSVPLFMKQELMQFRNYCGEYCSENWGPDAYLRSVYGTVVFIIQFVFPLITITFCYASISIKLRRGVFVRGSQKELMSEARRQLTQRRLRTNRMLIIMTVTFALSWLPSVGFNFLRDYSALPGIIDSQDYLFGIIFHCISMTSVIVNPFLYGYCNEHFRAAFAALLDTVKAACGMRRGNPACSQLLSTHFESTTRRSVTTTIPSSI
Protocol: Using Chinese hamster ovarian (CHO) cell cultures stably expressing the promiscuous G protein, Gα16, and the calcium reporter, aequorin, it was observed that both isoforms of NPR-10 are activated by seven of the ten FLP-3 peptides, with half-maximal effective concentrations (EC50) in the nM range (FIG. 14A-FIG. 14H, Table V). […] This peptide contains an R-to-K mutation within the C-terminal motif, which may explain the lack of receptor activation.
(§1) The GPCR activation assay was performed as previously described Van Sinay, E. et al. Proc. Natl Acad. Sci. USA 114, E4065-e4074 (2017) and Peymen, K. et al. PLoS Genet. 15, e1007945 (2019). Briefly, npr-10 and frpr-16 cDNAs were cloned into the pcDNA3.1 TOPO expression vector (Thermo Fisher Scientific). A CHO-K1 cell line (PerkinElmer, ES-000-A24) stably expressing apo-aequorin targeted to the mitochondria (mtAEQ) and human Gα16 was transiently transfected with the receptor cDNA construct or the empty pcDNA3.1 vector using Lipofectamine LTX and Plus reagent (Thermo Fisher Scientific). Cells were shifted to 28° C. one day later and allowed to incubate for 24 h. On the day of the assay, cells were collected in BSA medium (DMEM/Ham's F12 with 15 mM HEPES, without phenol red, 0.1% BSA) and loaded with […] coelenterazine h (Thermo Fisher Scientific) for 4 h at room temperature. The incubated cells were then added to synthetic peptides dissolved in DMEM/BSA, and luminescence was measured for 30 s at […] using a Mithras LB940 (Berthold Technologies) or MicroBeta LumiJet luminometer (PerkinElmer). After 30 s of readout, 0.1% triton X-100 was added to lyse the cells, resulting in a maximal calcium response that was measured for 10 s. After initial screening, concentration-response curves were constructed for HPLC-purified FLP-3 peptides by subjecting the transfected cells to each peptide in a concentration range from 1 pM to 10 μM. Cells transfected with an empty vector were used as a negative control. Assays were performed in triplicate on at least two independent days. Concentration-response curves were fitted using Prism v. 7 (nonlinear regression analysis with a sigmoidal concentration-response equation).

FRPR-16 = target: T2, FRPR-16 (Caenorhabditis elegans, UniProt Q21957); experiment: In vitro GPCR activation assay (CHO-K1 cells, aequorin, human Gα16), FRPR-16; type: cell-based, C. elegans; settings: for activation of FRPR-16: in words; for EC50: calcium/aequorin luminescence in transfected CHO-K1 cells
T2 sequence (Q21957 1-340): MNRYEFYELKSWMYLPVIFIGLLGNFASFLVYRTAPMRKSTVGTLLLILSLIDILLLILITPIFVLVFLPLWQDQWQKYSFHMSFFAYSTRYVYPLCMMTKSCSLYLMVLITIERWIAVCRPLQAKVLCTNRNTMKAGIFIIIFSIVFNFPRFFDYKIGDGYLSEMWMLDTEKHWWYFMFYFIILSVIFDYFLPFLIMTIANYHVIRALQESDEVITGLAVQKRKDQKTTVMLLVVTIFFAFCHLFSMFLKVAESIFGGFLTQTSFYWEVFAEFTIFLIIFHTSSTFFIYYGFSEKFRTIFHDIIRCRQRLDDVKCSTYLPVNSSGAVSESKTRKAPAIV
Protocol: as §1

flp-3 lof males = experiment: Drop avoidance assay to ascr #8 after FLP-3 peptide rescue-by-feeding; type: in vivo, C. elegans; settings: flp-3 lof males raised on peptide; 1 μM ascr #8; in words
Protocol: To identify which FLP-3 peptides are required for male avoidance of ascr #8, a peptide feeding approach https://www.nature.com/articles/s42003-021-02547-7-ref-CR59 was adopted, similar to RNAi feeding (FIG. 16A). Using Gateway Cloning technology, FLP-3 peptide coding sequences were inserted into a bacterial expression vector. As a control, first the FLP-3 peptides were tested that are still encoded in the ok3625 allele which are insufficient to drive the proper ascr #8 response in vivo: FLP-3-1 (SPLGTMRFamide) (SEQ ID NO: 10) and FLP-3-4 (NPLGTMRFamide) (SEQ ID NO: 11). Then flp-3 lof animals were reared on lawns of bacteria expressing the rescue constructs, and their progeny were assayed for avoidance (FIG. 16B-FIG. 16D).
Assays were performed as described previously in Chute, C. D. & Srinivasan, J. Semin. Cell Dev. Biol. 33, 18-24 (2014); Chute, C. D. et al. Nat. Commun. 10, 3186 (2019); and Hilliard, M. A. et al., EMBO J. 23, 1101-1111 (2004). Fifty to sixty L4 worms were segregated by sex and stored at 20° C. for 5 h to overnight to be assayed as young adults. One to four hours prior to the assay, the lids of unseeded plates were tilted to allow any excess moisture to evaporate off the plates. At the time of the assay, 10 or more animals were transferred onto each of the dried, unseeded plates. A drop of either water or 1 μM ascr #8 was placed on the tail of forward moving animals, and their response was scored as either an avoidance response, or no response. The total number of avoidances was divided by the total number of drops to generate an avoidance index for that plate. This was repeated for at least 10 plates over at least three different days.
SCRAMBLE control or FLP-3 peptide constructs were grown overnight in LB media containing […] ampicillin at 37° C. and diluted to an OD600 of 1.0 prior to seeding on NGM plates containing […] ampicillin and 1 mM IPTG. The 75 μL lawn was left to dry and grow overnight at room temperature before three L4 animals were placed on the plates. Males were selected for testing in the same manner as described above but were isolated onto plates also seeded with the same peptide on which they had been reared. Animals were then assayed using either the avoidance assay or single worm assay.

him-5 and pdf-1 males = experiment: Excursion (food-leaving) assay after rescue-by-feeding; type: in vivo, C. elegans; settings: for PL (confidence interval): Probability of Leaving per hour, beyond 35 mm from food
Text: We quantified the behavioral activity of pdf-1 lof males using a food-leaving behavior as previously described. Individuals were placed on a small food spot, and track patterns were scored at three different time points (2, 6, 24 hrs) (FIG. 4A). “Never left food” indicate the absence of tracks outside the food spot. […] “Major excursion” indicates the presence of tracks past the 1 cm boundary (FIG. 1B, Excursion Assay). The food-leaving behavior was quantified as a measure of mate-searching behavior. In this behavior well-fed males left food in search of mates and the data is represented as a Probability of Leaving (PL) (FIG. 7A).
The mate searching behavior of pdf-1 mutants was quantified in a food leaving assay. him-5 animals were used as wild-type control to ensure the presence of males. him-5 and pdf-1 animals were fed OP50, scramble peptide, PDF-1A, PDF-1B, or a 1:1 mixture of PDF-1A and PDF-1B cultures. Four to six larval L4 hermaphrodites were passed onto an NGM plate containing […] AMP and 1 mM IPTG with 75 μL of peptide. These worms were grown at 20° C. for about 4 days until the male progeny of the initial L4 worms were young adults. The day prior to the assay, young adult male pdf-1 or him-5 worms were singled onto 60 mm plates containing lawns of either OP50 (NGM plates) or appropriate peptide cultures (NGM containing […] AMP and 1 mM IPTG). To determine the mate searching effects of pdf-1, we performed a food-leaving assay as described previously in Barrios, A., et al., Nat Neurosci 15, 1675-1682 (2012); Lipton, J., et al., The Journal of neuroscience: the official journal of the Society for Neuroscience 24, 7427-7434 (2004); Ryan, D. A. et al. Curr Biol 24, 2509-2517 (2014), with modifications. In this assay, individuals were placed on a small food spot, and track patterns were scored at the indicated times. Assay plates were prepared one day prior to assaying on 100 mm plates with 10 mL of Leaving Assay media (25 mM KPO4 (pH 6.0), 1 mM MgSO4, 1 mM CaCl2), 50 mM NaCl, 2.5 g/L Peptone, 17 g/L Agar). On center of plate, 7 μL of OP50 was added. Plates were lightly covered and stored at room temperature overnight (˜20° C., <40% humidity).
On the day of the assay, a single male was plated on the assay plate and placed in a dark, 20° C. incubator. At 2, 6, and 24 hours after the worms are plated, plates were scored for male worm tracks. Scored were separated into binned ranges. “Never left food” indicates the absence of tracks outside the food spot. […] “Major excursion” indicates the presence of tracks past the 1 cm boundary. The food leaving behavior was quantified at three different time points (2, 6, and 24 hours). (FIG. 4A, FIG. 7A, Table IV).
The mate searching defect of pdf-1 was quantified as a Probability of Leaving per hour (PL) (FIG. 4B, FIG. 7B).
The assay was performed across at least two days per condition, with at least n=50, wherein each assay plate with one male is equal to n=1. In all experiments, the investigators were blinded to genotype. Worm in the >35 mm from the center of food bin were scored as “leavers”. The probability of leaving per hour (Probability of Leaving (PL)) was calculated using an R script developed in Barrios et al., with assistance by (Personal Communications to Barrios, 2020). PL was calculated by the “hazard obtained by fitting an exponential parametric survival model to the censored data using maximum likelihood” (Table IV). The PLh-1 values for all pdf-1 animals fed scramble or peptide rescue were compared to him-5 worms fed scramble using an ANOVA followed by Bonferroni's multiple comparison (FIG. 4B, FIG. 7C).

Row | Substance | EC50 (NPR-10B) [nM] | EC50 (FRPR-16) [nM] | rescue of avoidance phenotype to ascr #8 (Avoidance Index) (flp-3 lof males) | also measured
1 | STVDSSEPVIRDQ [FLP-3-10] | – | – | unable to rescue the avoidance phenotype | activation of NPR-10 (NPR-10B) (NPR-10B): failed to activate the receptor; also recorded: did not activate either receptor; activation of FRPR-16 (FRPR-16): did not activate FRPR-16; also recorded: did not activate either receptor
2 | SNAELINGLLSMNLNKLSGAG-NH2 [PDF-1B] | – | – | – | PL (confidence interval) (him-5 and pdf-1 males; him-5 males): 0.08712 (0.0754, 0.1007); Probability of Leaving, comparison in words (him-5 and pdf-1 males; pdf-1 lof males fed peptide): significantly different PL from pdf-1 males fed PDF-1A alone; rescue of food-leaving behavior (percent of males leaving food) (him-5 and pdf-1 males; pdf-1 lof males, 2, 6, 24 hrs): complete rescue of food-leaving behavior; PL (confidence interval) (him-5 and pdf-1 males; pdf-1 males): 0.05821 (0.04761, 0.07118)
3 | SPLGTMRF-NH2 [FLP-3-1, SPLGTMRFamide] | 262 | 7.4 | unable to rescue the avoidance phenotype on their own | –
4 | SNAELINGLIGMDLGKLSAVG-NH2 [PDF-1A] | – | – | – | PL (confidence interval) (him-5 and pdf-1 males; him-5 males): 0.06979 (0.05892, 0.08269); PL (confidence interval) (him-5 and pdf-1 males; pdf-1 males): 0.03287 (0.02657, 0.04224)
5 | EDGNAPFGTMKFamide (EDGNAPFGTMKF-NH2) [FLP-3-6] | – | – | – | activation of NPR-10 (NPR-10B) (NPR-10B): did not activate NPR-10; also recorded: did not activate either receptor; activation of FRPR-16 (FRPR-16): did not activate FRPR-16; also recorded: did not activate either receptor

More lines, main results first:

Row | EC50 (NPR-10B) [nM] | EC50 (FRPR-16) [nM] | Substance | rescue of avoidance phenotype to ascr #8 (Avoidance Index) (flp-3 lof males) | also measured
6 | 427 | 10.7 | NPLGTMRF-NH2 [FLP-3-4, NPLGTMRFamide] | unable to rescue the avoidance phenotype on their own | –
7 | 1100 | 72.1 | ASEDALFGTMRF-NH2 [FLP-3-5, ASEDALFGTMRFamide] | – | –
8 | 439 | 39.5 | SAEPFGTMRF-NH2 [FLP-3-7, SAEPFGTMRFamide] | – | –
9 | 867 | 288 | EAEEPLGTMRF-NH2 [FLP-3-3, EAEEPLGTMRFamide] | – | –
